Data on 22 compounds can be found in publication PMC8667925, “New 1,2,4-oxadiazole derivatives with positive mGlu4 receptor modulation activity and antipsychotic-like properties” (Journal of Enzyme Inhibition and Medicinal Chemistry, 2021).

The EC50 is the midpoint of the concentration-response curve.

The target of assay [1] is T1, mGlu4 receptor (Homo sapiens, UniProt Q14833).
T1 construct: mGlu4 receptor NM_000841, mGlu7 receptor NM_000844.2, and mGlu8 receptor NM_000845; expressed in transfected cells; host or cells: T-REx 293
T1 sequence (Q14833 33-912): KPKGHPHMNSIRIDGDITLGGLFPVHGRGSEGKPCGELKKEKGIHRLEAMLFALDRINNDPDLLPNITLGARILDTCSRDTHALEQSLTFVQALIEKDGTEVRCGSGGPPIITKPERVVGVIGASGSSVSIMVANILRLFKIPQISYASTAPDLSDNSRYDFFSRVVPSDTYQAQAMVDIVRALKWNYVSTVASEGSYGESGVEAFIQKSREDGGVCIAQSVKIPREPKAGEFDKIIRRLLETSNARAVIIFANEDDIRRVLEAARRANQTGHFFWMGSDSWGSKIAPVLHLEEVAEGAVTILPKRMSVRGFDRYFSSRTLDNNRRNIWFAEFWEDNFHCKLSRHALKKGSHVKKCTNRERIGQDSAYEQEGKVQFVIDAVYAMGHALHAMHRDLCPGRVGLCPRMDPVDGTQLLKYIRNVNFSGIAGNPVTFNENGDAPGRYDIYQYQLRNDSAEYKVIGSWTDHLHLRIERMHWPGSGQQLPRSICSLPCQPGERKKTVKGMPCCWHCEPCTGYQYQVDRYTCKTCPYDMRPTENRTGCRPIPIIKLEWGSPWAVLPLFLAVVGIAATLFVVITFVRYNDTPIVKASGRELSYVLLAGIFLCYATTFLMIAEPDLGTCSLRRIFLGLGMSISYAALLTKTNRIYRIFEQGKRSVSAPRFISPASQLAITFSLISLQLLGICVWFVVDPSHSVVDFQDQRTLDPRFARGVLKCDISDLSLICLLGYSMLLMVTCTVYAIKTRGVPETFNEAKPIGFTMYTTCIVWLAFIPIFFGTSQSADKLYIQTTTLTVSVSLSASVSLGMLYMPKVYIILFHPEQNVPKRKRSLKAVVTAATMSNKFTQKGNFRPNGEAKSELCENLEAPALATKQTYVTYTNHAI
Nature of the assay: forskolin-stimulated cAMP assay, PAM mode (EC20 of L-Glu), T-REx 293 cells. In kind it is cell-based. The note with it: for EC50 / Emax / mGlu4 receptor PAM activity: PAM mode; for EC50: EC20 (3 µM) L-Glu, T-REx 293 cells expressing human mGlu4 receptor; for EC50 / Emax / Fold shift of L-Glu dose-response curve: SEM where given; for Emax: T-REx-293, read-out: GluMax; for Emax / mGlu4 receptor PAM activity: human mGlu4; for Fold shift of L-Glu dose-response curve: in the presence of 10 µM of compound. The method, then: The activity of the compounds was assessed in vitro in a forskolin-stimulated cAMP assay in T-REx 293 cells expressing human mGlu4 receptors in the presence of an EC20 concentration of L-Glu; a PAM was identified if it potentiated cAMP inhibition by the Gi/o-dependent pathway of mGlu4 receptor activation; i.e. if it was able to produce a leftward shift in the potency of the endogenous agonist.
Determination of the intracellular cAMP through a homogeneous time-resolved fluorescence (HTRF) cAMP dynamic 2 kit from Cisbio (Codolet, France) was described previously by Chruścicka et al.[91]. Briefly, cells were grown in DMEM supplemented with 10% foetal bovine serum (FBS) (tetracycline free). Forty-eight hours before the experiments, mGlu receptor expression was induced by the addition of 0.75 µg/mL tetracycline. Twenty hours before the experiment, FBS and L-Glu were removed from the medium. Thereafter, the cells were scraped and centrifuged. A cell pellet was suspended in Hanks-HEPES (130 mM NaCl, 5.4 mM KCl, 1.8 mM CaCl2, 0.8 mM MgSO4, 0.9 mM NaH2PO4, 20 mM HEPES, and 3.25 mM glucose; pH 7.4). Then, the cell suspension was incubated in the presence of 10 µM forskolin (or 3 µM forskolin for mGlu7 receptor), the agonist L-glutamate and a compound for 5 min. Next, 10 µl of the cell suspension was mixed with 5 µl of cAMP-d2 conjugate and 5 µL of anti-cAMP cryptate conjugate. After 1 h of incubation at rt, the fluorescence at 620 nm and 665 nm was read (Tecan Infinite M1000). The results were calculated as the 665 nm/620 nm ratio multiplied by 10^4. Each sample was prepared in triplicate.
Statistical calculations were performed using GraphPad Prism 5.04 software (GraphPad Software, La Jolla, CA, USA). The curves were fitted to a 3-parametric logistic equation, allowing for the determination of EC50 values. Each data point was analysed in triplicate.

Assay [2] deals with Albino Swiss mice. The assay can be described thus: DOI-induced head twitch test (HTR). Format: in vivo. The settings on record: over the doses 2.5, 5 and 10 mg/kg i.p.; DOI 2.5 mg/kg i.p. The protocol:
(§1) The compounds were dissolved in a small amount of 100% EtOH and then adjusted with 20% cyclodextrin, and the pH was adjusted to 6.0. The investigated compounds were administered intraperitoneally (i.p.) 60 min before the behavioural test. Control drugs i.e. diazepam, clozapine and imipramine (Sigma–Aldrich, St. Louis, USA), were administered i.p. 60 min before the behavioural test. Cyclodextrin (20%) was used as a vehicle. All solutions were prepared immediately prior to the experiments and were administered at a constant volume of 10 ml/kg.
The experiments were performed according to the procedure described in our previous studies[75]^,[80]. Briefly, to habituate mice to the experimental environment, each animal was transferred to a 12 cm (diameter) × 20 cm (height) glass cage lined with sawdust 30 min before treatment. Test compounds were administered intraperitoneally (i.p.) at doses of 2.5, 5, and 10 mg/kg body weight 60 min before the test was performed. The head twitch response (HTR) in mice was induced by DOI (2.5 mg/kg, i.p.). Immediately after treatment, the number of head twitches was counted during a 20 min session. Haloperidol and clozapine were used as the reference compounds at active doses of 0.2 and 5 mg/kg, respectively.

Assay [3] deals with Albino Swiss mice. Nature of the assay: modified stress-induced hyperthermia (SIH) in singly housed mice. Format: in vivo. The protocol: as §1
The procedure for modified stress-induced hyperthermia was adapted from Van der Heyden[93] and based on the procedure introduced by Borsini[94]. Each experimental group consisted of eight to ten animals. The animals were housed individually in a 26 × 21 × 14 cm Macolon cage 24 h before testing. For this assay, the body temperature was measured for each mouse at t = 0 min (T1) and t = +15 min (T2). Albino Swiss mice were placed into a new cage immediately following T1, with the difference in temperature (T2−T1) used as the measure of stress-induced hyperthermia. […] A comparison between T1 in vehicle-treated mice and those administered the test compound was used to determine whether the agent affects body temperature alone. Diazepam (5 mg/kg) was used as the positive control. The rectal temperature was measured to the nearest 0.1 °C with a Physitemp Theralert thermometer, TH-5, Clifton NJ, USA, with the temperature sensor for mice, Type T, Copper-Constantan Thermocouple, Braintree Scientific Inc. The lubricated thermistor probe (2 mm diameter) was inserted 20 mm into the rectum. The mouse was held at the base of the tail during this determination, and the thermistor probe was left in place until a constant reading was obtained for 15 s. The effects of the investigated compounds on the SIH response were investigated after administration of the compounds at doses of 5, 10 and 20 mg/kg.

“Also recorded” adds a separate entry of the source.

Regarding `O=C(Nc1ccc(-c2noc(-c3ccccc3)n2)c(C(F)(F)F)c1)c1ccccn1` [Compound 59], in assay [1], the half-maximal effective concentration (EC50) worked out at 0.74 µM, the Emax stood at 150% and the “Fold shift of L-Glu dose-response curve” value is on record as 7.6.
For `COc1cc(NC(=O)c2ncc(Cl)cc2F)ccc1-c1noc(-c2ccccc2Cl)n1` [Compound 40], the “mGlu4 receptor PAM activity” value in assay [1] is “did not potentiate cAMP inhibition”.
As to `O=C(Nc1ccc(-c2noc(-c3ccc(F)cc3Cl)n2)c(Cl)c1)c1ccccn1` [Compound 53], in assay [1], the 50% effective concentration (EC50) is 1.35 µM, the Emax is 119% and the “Fold shift of L-Glu dose-response curve” value stood at 2.1.
The like results for `COc1cc(NC(=O)c2cc(F)cc(F)n2)ccc1-c1noc(-c2ccccc2Cl)n1` [Compound 43] were, in that order, 2.5 µM, 134% and 5.0.
The like results for `Cc1cc(NC(=O)c2ccccn2)ccc1-c1noc(-c2ccccc2)n1` [Compound 61] were, in that order, 1.65 µM, 128% and 5.1.
The matching figures for `COc1cc(NC(=O)c2ccncn2)ccc1-c1noc(-c2ccccc2Cl)n1` [Compound 45]: 3.1 µM, 118% and 3.1.
As for `O=C(Nc1ccc(-c2noc(-c3ccccc3Cl)n2)cc1)c1ccccn1` [Compound 17d], in assay [1], the EC50 is 3.7 µM, the Emax was found to be 116% and the “Fold shift of L-Glu dose-response curve” value turned out to be 1.8.
Turning to `COc1ccc(Cl)c(C(=O)Nc2ccc(-c3noc(-c4ccccc4Cl)n3)c(OC)c2)n1` [Compound 42], the “mGlu4 receptor PAM activity” value in assay [1] is reported as “did not potentiate cAMP inhibition”. Moreover, the “effect on DOI-induced HTR” value in assay [2] was “failed to alter SIH and block DOI-induced HTR”. Further, the “effect on SIH response” value in assay [3] (over the doses 5, 10 and 20 mg/kg i.p.) is on record as “None of the administered doses of compound 42 statistically affected the SIH; also recorded: failed to alter SIH”.
As to `COc1cc(NC(=O)c2ccccn2)ccc1-c1noc(-c2ccc(F)cc2Cl)n1` [Compound 38], in assay [1], the EC50 was 1.98 µM, the Emax came out at 124% and the “Fold shift of L-Glu dose-response curve” value was determined as 4.6.
Regarding `O=C(Nc1ccc(-c2noc(-c3ccccc3Cl)n2)c(Cl)c1)c1cccc(F)n1` [Compound 50], in assay [1], the “mGlu4 receptor PAM activity” value was “unable to modulate mGlu4 receptor activity”.
For the compound `COc1ccc(-c2nc(-c3ccc(NC(=O)c4cccs4)cc3)no2)cc1` [Compound 17c], the “mGlu4 receptor PAM activity” value in assay [1] is “not tolerated”.
For `COc1cc(NC(=O)c2ccccn2)ccc1-c1noc(-c2cccc(Cl)c2)n1` [Compound 35], in assay [1], the 50% effective concentration (EC50) is 5.3 µM, the Emax was 145% and the “Fold shift of L-Glu dose-response curve” value was determined as 2.2.
For `COc1ccccc1-c1nc(-c2ccc(NC(=O)c3ccccn3)cc2Cl)no1` [Compound 54], in assay [1], the half-maximal effective concentration (EC50) came out at 0.75 µM, the Emax amounted to 111% and the “Fold shift of L-Glu dose-response curve” value came to 2.2.
Turning to `COc1cc(NC(=O)c2cccc(F)n2)ccc1-c1noc(-c2ccccc2F)n1` [Compound 47], in assay [1], the half-maximal effective concentration (EC50) was 0.89 µM, the Emax came to 121% and the “Fold shift of L-Glu dose-response curve” value turned out to be 6.9.
On to `COc1cc(NC(=O)c2ccccn2)ccc1-c1noc(-c2ccccc2)n1` [Compound 33], for which, in assay [1], the half-maximal effective concentration (EC50) stood at 1.83 µM, the Emax was 130% and the “Fold shift of L-Glu dose-response curve” value worked out at 5.3.
As for `CN1C(=O)CN=C(c2ccccc2)c2cc(Cl)ccc21` [diazepam, reference compound], the “effect on SIH response” value in assay [3] (5 mg/kg i.p., 60 min before test) is reported as “significantly reduced SIH”.
`O=C(Nc1ccc(-c2noc(-c3ccccc3)n2)c(F)c1)c1ccccn1` [Compound 55]: in assay [1], the EC50 came out at 2.56 µM, the Emax turned out to be 127% and the “Fold shift of L-Glu dose-response curve” value worked out at 3.0.
Take `O=C(Nc1ccc(-c2noc(-c3ccccc3Cl)n2)c(Cl)c1)c1cccc(Cl)n1` [Compound 51]: in assay [1], the “mGlu4 receptor PAM activity” value is given as “unable to modulate mGlu4 receptor activity”.
Still for that read-out and setting: the value for `COc1cc(NC(=O)c2nc(Cl)ccc2Cl)ccc1-c1noc(-c2ccccc2F)n1` [Compound 48] was “did not potentiate cAMP inhibition”.
`COc1cc(NC(=O)c2nccs2)ccc1-c1noc(-c2ccccc2Cl)n1` [Compound 46]: in assay [1], the EC50 is 2.2 µM, the Emax was 126% and the “Fold shift of L-Glu dose-response curve” value was 3.6.
On to `COc1cc(NC(=O)c2cccc(Cl)n2)ccc1-c1noc(-c2ccccc2Cl)n1` [Compound 41], for which, in assay [1], the EC50 is 1.92 µM, the Emax stood at 115% and the “Fold shift of L-Glu dose-response curve” value came out at 4.1.
For `COc1cc(NC(=O)c2ccccn2)ccc1-c1noc(-c2ccc(Cl)cc2)n1` [Compound 36], in assay [1], the concentration giving a half-maximal response (EC50) is 1.98 µM, the Emax stood at 157% and the “Fold shift of L-Glu dose-response curve” value came out at 2.0.
